Patent publication US6541195B2, “Correction of genetic defects using chemical chaperones” (The Regents of the University of California, priority 1996, dated 2003)
Read-outs that look alike come from different tables or passages of the source.

Legend:
ΔF508 CFTR [1] = target: T1, ΔF508 CFTR (Homo sapiens, UniProt P13569, DEL508-508); test: Forskolin stimulated chloride transport, SPQ fluorescence assay; assay type: cell-based; conditions: for forskolin dependent chloride efflux: 37° C.
T1 construct: expressed in transfected cells
T1 sequence (P13569 with tags, fused parts or gaps DEL508-508): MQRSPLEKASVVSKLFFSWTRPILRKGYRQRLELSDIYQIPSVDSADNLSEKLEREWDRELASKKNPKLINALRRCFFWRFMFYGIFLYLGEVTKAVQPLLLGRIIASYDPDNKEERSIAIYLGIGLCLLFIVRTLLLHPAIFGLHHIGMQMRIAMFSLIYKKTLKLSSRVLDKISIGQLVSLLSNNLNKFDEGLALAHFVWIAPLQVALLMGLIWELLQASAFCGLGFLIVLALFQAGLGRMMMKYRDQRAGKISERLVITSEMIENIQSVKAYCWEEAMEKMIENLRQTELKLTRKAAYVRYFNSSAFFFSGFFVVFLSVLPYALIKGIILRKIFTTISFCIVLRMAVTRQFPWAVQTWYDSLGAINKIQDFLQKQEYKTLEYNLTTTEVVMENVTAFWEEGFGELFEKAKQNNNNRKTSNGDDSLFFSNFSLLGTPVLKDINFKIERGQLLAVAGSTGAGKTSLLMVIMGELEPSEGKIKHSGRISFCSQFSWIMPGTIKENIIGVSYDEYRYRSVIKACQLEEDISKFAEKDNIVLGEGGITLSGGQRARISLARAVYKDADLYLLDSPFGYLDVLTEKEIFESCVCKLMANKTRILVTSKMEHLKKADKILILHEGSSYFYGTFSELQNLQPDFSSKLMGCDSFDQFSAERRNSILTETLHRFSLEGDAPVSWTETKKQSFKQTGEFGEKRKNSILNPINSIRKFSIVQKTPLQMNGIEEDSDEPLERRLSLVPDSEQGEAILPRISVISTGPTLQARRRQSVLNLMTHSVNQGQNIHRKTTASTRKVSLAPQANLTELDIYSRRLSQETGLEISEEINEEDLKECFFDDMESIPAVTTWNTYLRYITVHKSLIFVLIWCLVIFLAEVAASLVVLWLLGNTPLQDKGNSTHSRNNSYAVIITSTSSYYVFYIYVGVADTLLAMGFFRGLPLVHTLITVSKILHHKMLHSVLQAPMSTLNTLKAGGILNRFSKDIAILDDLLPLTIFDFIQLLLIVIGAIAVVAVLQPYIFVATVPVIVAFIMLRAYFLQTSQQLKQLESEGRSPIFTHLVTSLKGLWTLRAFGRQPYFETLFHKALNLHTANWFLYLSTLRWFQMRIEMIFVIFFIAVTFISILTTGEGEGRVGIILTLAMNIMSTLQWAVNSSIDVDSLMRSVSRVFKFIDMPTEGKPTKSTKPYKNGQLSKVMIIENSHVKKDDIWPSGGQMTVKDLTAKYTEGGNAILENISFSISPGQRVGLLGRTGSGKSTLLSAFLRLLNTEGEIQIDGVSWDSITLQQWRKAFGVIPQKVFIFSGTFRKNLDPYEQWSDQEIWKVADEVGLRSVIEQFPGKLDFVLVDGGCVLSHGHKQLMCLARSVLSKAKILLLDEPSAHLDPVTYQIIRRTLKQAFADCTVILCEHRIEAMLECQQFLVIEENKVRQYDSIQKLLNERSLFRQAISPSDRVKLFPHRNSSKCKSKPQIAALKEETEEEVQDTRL
Description: (§1) Forskolin-sensitive chloride transport was measured by the fluorescence assays method (FIG. 3). Briefly, ΔF508-CFTR expressing cells were grown on glass coverslips at 37° C. in the absence or presence of 1.25 M glycerol for 3 days. These cells, along with cells expressing wild type CFTR, then were examined for forskolin stimulated chloride transport using SPQ fluorescence assays, as described in: Verkman, A. S., Am. J. Physiol., 259:C375 (1990); Verkman, A. S. et al., in Methods in Neurosciences, Kraicer, J. et al., Eds. (Academic Press, 1995) vol. 27, 328. Plasma membrane chloride efflux was measured from the time course of increase in SPQ fluorescence in response to replacement of intracellular chloride by nitrate. Cells in the presence or absence of a protein stabilizing agent were incubated with 2 mM SPQ for 12-18 hrs. prior to measurements. The rate of chloride efflux was measured before and after stimulation of cAMP with forskolin. The reaction was quenched by the addition of 150 mM KSCN.
(§2) The positive effect of glycerol treatment on chloride conductance was concentration and time dependent (FIG. 3B). ΔF508 CFTR-expressing cells growing on glass coverslips were incubated with various concentrations of glycerol for 3 days and then examined for forskolin stimulated chloride transport. Alternatively, cells were incubated with 1.25 M glycerol for varying times (1, 2 or 3 days) and then analyzed for chloride transport following stimulation by forskolin.
Powdered DMEM medium (Gibco) was reconstituted in 100% distilled water or in 100% […]. Cells transfected with ΔF508 CFTR or mock transfected cells were incubated in either the distilled water or the dH2O containing culture medium for two days at 37° C., and then analyzed for forskolin dependent chloride efflux.
Both mock transfected cells and the cells transfected with ΔF508 CFTR were incubated in regular DMEM culture medium containing 100 mM TMAO for two days at 37° C. and then analyzed for forskolin dependent chloride efflux.
In contrast, cells treated with 4 different osmolytes now show partial chloride transport (note however that it never reaches the wild type levels, rather only about 10-30% of wild type).

[2] = target: conversion of PrP^C to PrP^Sc (Mus musculus, UniProt P04925); assay type: cell-based; conditions: for reduction of the amount of detergent insoluble PrP: 100 mM
conversion of PrP^C to PrP^Sc, sequence (P04925 23-230 limits assumed): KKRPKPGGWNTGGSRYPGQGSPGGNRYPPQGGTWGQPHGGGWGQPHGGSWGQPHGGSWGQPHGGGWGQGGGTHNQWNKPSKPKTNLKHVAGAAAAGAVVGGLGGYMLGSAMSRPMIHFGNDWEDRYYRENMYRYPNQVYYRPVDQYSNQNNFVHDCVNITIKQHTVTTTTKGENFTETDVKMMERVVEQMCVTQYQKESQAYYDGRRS

[3] = test system: temperature sensitive form of pp60^src; assay type: cell-based, Rous sarcoma virus; conditions: 39.5° C.
[4] = target: temperature sensitive (ts) mutant p53 protein (Mus musculus, UniProt P02340, A135V); test: Intracellular localization of temperature sensitive p53 in A1-5 cells by indirect immunofluorescence; conditions: 39.5° C., after 2 D treatment
temperature sensitive (ts) mutant p53 protein, sequence (P02340 whole entry A135V): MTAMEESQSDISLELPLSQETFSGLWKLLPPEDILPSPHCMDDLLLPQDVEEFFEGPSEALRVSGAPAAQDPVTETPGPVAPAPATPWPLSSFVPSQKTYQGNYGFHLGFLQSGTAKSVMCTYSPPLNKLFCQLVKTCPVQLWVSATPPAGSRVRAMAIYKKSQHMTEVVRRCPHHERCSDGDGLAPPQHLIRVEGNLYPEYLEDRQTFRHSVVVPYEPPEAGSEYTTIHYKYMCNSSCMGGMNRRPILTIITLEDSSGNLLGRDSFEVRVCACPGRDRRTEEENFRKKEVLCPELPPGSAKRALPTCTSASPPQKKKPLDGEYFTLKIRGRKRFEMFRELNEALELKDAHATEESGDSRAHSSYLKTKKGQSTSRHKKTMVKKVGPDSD

ΔF508 CFTR [5] = target: T1, ΔF508 CFTR; test: Western blotting of ΔF508 CFTR processing and maturation in transfected NIH 3T3 cells; assay type: cell-based
Description: The effect of glycerol was measured by detecting either (1) the maturation of immature core-glycosylated endoplasmic reticulum forms of the ΔF508 CFTR to mature terminally glycosylated forms, or (2) the presence of forskolin-dependent chloride transport.
Western blotting using a commercially available anti-CFTR monoclonal antibody (panel 1A) or our polyclonal anti-CFTR antibody (Panel 1B) was performed using cell lysates from NIH 3T3 cells transfected with either the wild type or ΔF508 forms of CFTR. Andersen, M. P. et al., Science, 253:202 (1991). Both the polyclonal and monoclonal antibodies recognized the 140 kDa (core glycosylated, or B form) and 160 kDa (fully glycosylated, C form) forms of CFTR in lysates from wild type CFTR expressing cells. In contrast, only the 140 kDa core glycosylated CFTR was detected by the two antibodies in the lysates from cells transfected with the ΔF508 CFTR mutant.
In panel 1C, cells expressing the ΔF508 mutant were examined by Western blotting using the rabbit polyclonal antibody following their treatment at 37° C. with 1 M glycerol for 3 days. As a positive control, the ΔF508 CFTR expressing cells were incubated at 26° C. for 3 days.
The results of experiments to determine the optimal concentration of glycerol and the duration of glycerol treatment needed to elicit the highest levels of mutant ΔF508 CFTR maturation are summarized in FIG. 2. In panel 2A, cells expressing ΔF508 CFTR were incubated at 37° C. for 3 days in culture medium containing various concentrations of glycerol. The cells were harvested and then analyzed by Western blotting using the rabbit polyclonal anti-CFTR antibody. In panel 2B, cells expressing ΔF508 CFTR were incubated with 1.25 M glycerol at 37° C. for 1, 2 or 3 days and then analyzed by Western blotting as described in A. Glycerol concentrations of 1-1.25 M gave the maximal amount of mutant protein which was properly processed.
In Panel A of FIG. 22, 3T3 cells expressing the ΔF508 CFTR protein (via stable transfection) were treated with either 100 or 200 mM of the specified cellular osmolytes for 2 days. Cells were then lysed and examined by Western blot analysis. Wt represents cells expressing the wild type CFTR protein. B, G, T, S and M indicated cells treated with betaine, glucose, taurine, sorbitol and myoinositol, respectively.
In Panel A, cells expressing ΔF508 CFTR were incubated in the presence or absence of varying concentrations (25, 50, 100 mM) of osmolyte. After 2 days of growth, the cells were harvested and analyzed for their content of immature (band B) and mature (band C) forms of the CFTR protein by Western blotting. Cells expressing wild type CFTR (wt) were included as a positive control. In Panel B, cells expressing ΔF508 CFTR were incubated for 1 (1D), 2(2D) or 3 (3D) days in growth medium containing 150 mM of the indicated osmolyte. As a control, the same cells were incubated in normal growth medium. […] After 3 days of continuous treatment with 150 mM osmolyte there is see a “drop-off” of the amount of the C band.

wild type CFTR protein = target: T2, wild type CFTR protein (Homo sapiens, UniProt P13569); test: Glycerol exposure of cells expressing wild type CFTR (Western blotting, chloride conductance); assay type: cell-based; conditions: data not shown
T2 construct: expressed in transfected cells; host or cells: NIH 3T3 fibroblasts
T2 sequence (P13569 whole entry): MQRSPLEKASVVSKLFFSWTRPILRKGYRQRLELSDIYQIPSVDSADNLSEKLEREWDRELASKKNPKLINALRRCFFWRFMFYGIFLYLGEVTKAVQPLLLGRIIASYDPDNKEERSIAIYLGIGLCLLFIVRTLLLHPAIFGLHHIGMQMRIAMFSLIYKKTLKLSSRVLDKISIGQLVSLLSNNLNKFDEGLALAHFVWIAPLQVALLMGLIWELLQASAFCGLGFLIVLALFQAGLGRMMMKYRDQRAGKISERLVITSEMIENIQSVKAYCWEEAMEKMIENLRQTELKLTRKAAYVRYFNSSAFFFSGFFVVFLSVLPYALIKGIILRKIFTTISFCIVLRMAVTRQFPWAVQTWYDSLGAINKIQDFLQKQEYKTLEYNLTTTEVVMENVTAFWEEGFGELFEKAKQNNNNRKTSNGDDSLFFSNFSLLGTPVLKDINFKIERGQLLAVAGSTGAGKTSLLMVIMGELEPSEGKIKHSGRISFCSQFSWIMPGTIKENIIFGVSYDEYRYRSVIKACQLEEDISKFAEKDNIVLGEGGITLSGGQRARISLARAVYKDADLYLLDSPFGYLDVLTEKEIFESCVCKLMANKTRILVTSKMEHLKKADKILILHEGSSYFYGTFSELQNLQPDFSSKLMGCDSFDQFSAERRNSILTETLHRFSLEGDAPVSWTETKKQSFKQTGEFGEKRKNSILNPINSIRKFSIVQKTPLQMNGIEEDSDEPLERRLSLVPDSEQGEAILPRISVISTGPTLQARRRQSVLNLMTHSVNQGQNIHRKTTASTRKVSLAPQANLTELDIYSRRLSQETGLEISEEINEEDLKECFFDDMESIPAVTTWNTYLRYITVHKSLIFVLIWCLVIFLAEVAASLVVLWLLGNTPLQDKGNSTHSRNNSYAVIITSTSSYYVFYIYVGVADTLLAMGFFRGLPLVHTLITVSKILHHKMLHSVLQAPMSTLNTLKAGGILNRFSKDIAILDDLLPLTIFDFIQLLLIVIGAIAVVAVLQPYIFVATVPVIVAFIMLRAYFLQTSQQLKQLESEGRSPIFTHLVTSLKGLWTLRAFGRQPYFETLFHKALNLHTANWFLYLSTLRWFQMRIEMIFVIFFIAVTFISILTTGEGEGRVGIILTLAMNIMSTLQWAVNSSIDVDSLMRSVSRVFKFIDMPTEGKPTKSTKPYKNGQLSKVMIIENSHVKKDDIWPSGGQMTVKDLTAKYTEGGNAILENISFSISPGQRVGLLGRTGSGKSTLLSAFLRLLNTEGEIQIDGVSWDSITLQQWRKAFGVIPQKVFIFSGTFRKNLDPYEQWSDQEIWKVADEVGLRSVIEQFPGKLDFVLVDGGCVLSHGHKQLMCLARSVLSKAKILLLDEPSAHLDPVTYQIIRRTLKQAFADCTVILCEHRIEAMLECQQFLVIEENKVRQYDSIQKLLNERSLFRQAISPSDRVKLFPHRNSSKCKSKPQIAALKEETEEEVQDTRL
Description: as §1, with “Cells in the presence or absence of a protein stabilizing agent were incubated with 2 mM SPQ for 12-18 hrs. prior to measurements.” left out, “The reaction was quenched by the addition of 150 mM KSCN.” left out
as §2

C[N+](C)(C)[O-] [TMAO, trimethylamine N-oxide]
forskolin dependent chloride efflux (ΔF508 CFTR [1]; 100 mM TMAO, 2 days): Forskolin dependent chloride transport was observed
reduction of the amount of detergent insoluble PrP ([2]; ScN2a cells): over 50%
restoration of transformed phenotype / wild type pp60^src activity [3]: much less effective
concentration adversely affecting the morphology and growth rates of the cells (ScN2a cells): ≥ 200 mM
p53 distribution 2 days following removal of the agent [4]: all of p53 now was found within the cytoplasm

[2H]O[2H] [deuterated water]
CFTR processing in ΔF508 CFTR-expressing cells (ΔF508 CFTR [5]; deuterated water): competent to induce CFTR processing
forskolin dependent chloride efflux (ΔF508 CFTR [1]; medium in 100% dH2O, two days): exhibited forskolin-dependent chloride transport
restoration of transformed phenotype / wild type pp60^src activity [3]: much less effective
p53 distribution 2 days following removal of the agent [4]: all of p53 now was found within the cytoplasm

OCC(O)CO [glycerol]
mature ΔF508 CFTR protein by Western blotting (ΔF508 CFTR [5]; 1 M glycerol, 37° C., 3 days): significant amounts of the mature ΔF508 CFTR protein
duration of treatment giving maximal amounts of fully glycosylated ΔF508 CFTR protein (ΔF508 CFTR [5]; 1.25 M glycerol, 37° C.): 3 days
glycerol concentration giving the maximal amount of properly processed mutant protein (ΔF508 CFTR [5]; 37° C., 3 days): 1 to 1.25 M
effect of higher doses on fully glycosylated ΔF508 CFTR (ΔF508 CFTR [5]; doses higher than 1-1.25 M, 3 days): inhibitory
forskolin stimulated chloride transport (ΔF508 CFTR [1]; 1.25 M glycerol, one day): forskolin stimulated chloride transport was observed
concentration giving maximal rates of chloride efflux (ΔF508 CFTR [1]; 3 days): 1.25 M
lowest concentration with increased chloride transport (ΔF508 CFTR [1]; 3 days): 0.5 M
effect on amount of mature wild type CFTR protein or forskolin dependent chloride conductance (wild type CFTR protein): little or no effect
exogenously added MHM2 PrP in detergent fractions versus untreated ScN2a cells ([2]; 1 M glycerol 24 hrs, 40 hrs with MHM2 brain extract, 3F4 antibody): reduce the levels of the MHM2 protein in both the detergent soluble and insoluble fractions
glycerol concentrations also giving significant reduction in conversion of PrP^C to PrP^Sc ([2]; 3 days): 0.25-0.5 M
most effective glycerol concentration for reducing detergent insoluble PrP ([2]; 3 days, 0-1,000 mM tested): 1 M
overall levels of insoluble PrP versus non-glycerol treated cells ([2]; ScN2a cells, glycerol 24 hrs): marked reduction
PrP^C synthesis and movement of the newly synthesized protein to the plasma membrane (PIPLC release) ([2]; glycerol 24 hrs, PIPLC 5 U/ml 4 hrs): does not significantly affect
overall extent of PrP^C to PrP^Sc conversion relative to untreated cells (pulse-chase) ([2]; glycerol 3 days, then 5 days without glycerol): marked reduction
rate or overall extent of PrP^C synthesis (metabolic labeling) ([2]; presence versus absence of glycerol): no significant differences
p53 distribution one day following removal of the agent [4]: no longer displayed a nuclear p53 distribution

C[S+](C)[O-] [DMSO, dimethylsulfoxide]
reduction of the amount of detergent insoluble PrP ([2]; ScN2a cells): over 50%
concentration adversely affecting the morphology and growth rates of the cells (ScN2a cells; mouse): ≥ 200 mM
